In ChEMBL document CHEMBL1123701, “Synthesis and quantitative structure-activity relationship analysis of N-triiodoallyl- and N-iodopropargylazoles. New antifungal agents” (1987):
Values after ≈ are worked out from the molar mass of the structure shown.

How the values were obtained:
[1] = tested on: Aspergillus fumigatus; assay: Antifungal activity against Aspergillus fumigatus Saito strain; format: functional
[2] = tested on: Candida albicans; assay: Antifungal activity against Candida albicans C-A-24 strain; format: functional
[3] = tested on: Cryptococcus neoformans; assay: Antifungal activity against Cryptococcus neoformans Cr-1 strain; format: functional
[4] = tested on: Trichophyton interdigitale; assay: Antifungal activity towards Trichophyton interdigitale; format: functional
[5] = tested on: Trichophyton benhamiae; assay: Antifungal activity towards Trichophyton mentagrophytes 530324 strain; format: functional, Arthroderma benhamiae

MIC [1] [µg/mL]	MIC [2] [µg/mL]	MIC [3] [µg/mL]	MIC [4] [µg/mL]	MIC [5] [µg/mL]	SMILES
25 (≈ 138 µM)	100 (≈ 553 µM)	25 (≈ 138 µM)	3.13 (≈ 17.3 µM)	6.25 (≈ 34.5 µM)	O=[N+]([O-])c1c[nH]c(Cl)c1Cl
50 (≈ 142 µM)	50 (≈ 142 µM)	50 (≈ 142 µM)	0.78 (≈ 2.21 µM)	0.78 (≈ 2.21 µM)	CN(C)c1ccc(-c2nnn(CC#CI)n2)cc1
0.78 (≈ 2.26 µM)	0.78 (≈ 2.26 µM)	0.39 (≈ 1.13 µM)	0.1 (≈ 0.29 µM)	0.1 (≈ 0.29 µM)	Clc1cccc(-c2nnn(CC#CI)n2)c1
3.13 (≈ 11.4 µM)	12.5 (≈ 45.6 µM)	12.5 (≈ 45.6 µM)	3.13 (≈ 11.4 µM)	1.56 (≈ 5.69 µM)	IC#CCn1nnnc1C1CC1
> 100	> 100	100 (≈ 282 µM)	6.25 (≈ 17.7 µM)	25 (≈ 70.6 µM)	O=C(O)c1ccc(-c2nnn(CC#CI)n2)cc1
0.39 (≈ 1.4 µM)	3.13 (≈ 11.3 µM)	0.78 (≈ 2.81 µM)	0.78 (≈ 2.81 µM)	0.39 (≈ 1.4 µM)	O=[N+]([O-])c1ncnn1CC#CI
0.39 (≈ 0.736 µM)	0.39 (≈ 0.736 µM)	6.25 (≈ 11.8 µM)	0.1 (≈ 0.189 µM)	0.2 (≈ 0.377 µM)	O=[N+]([O-])c1cccn1CC(I)=C(I)I
1.56 (≈ 5.4 µM)	3.13 (≈ 10.8 µM)	6.25 (≈ 21.6 µM)	1.56 (≈ 5.4 µM)	1.56 (≈ 5.4 µM)	COC(=O)c1cccn1CC#CI
0.39 (≈ 0.739 µM)	3.13 (≈ 5.93 µM)	3.13 (≈ 5.93 µM)	0.2 (≈ 0.379 µM)	0.2 (≈ 0.379 µM)	IC(I)=C(I)Cn1nnc(C2CC2)n1
0.39 (≈ 1.42 µM)	1.56 (≈ 5.69 µM)	1.56 (≈ 5.69 µM)	0.78 (≈ 2.85 µM)	0.39 (≈ 1.42 µM)	IC#CCn1nnc(C2CC2)n1
0.78 (≈ 3.35 µM)	1.56 (≈ 6.69 µM)	1.56 (≈ 6.69 µM)	0.78 (≈ 3.35 µM)	0.39 (≈ 1.67 µM)	IC#CCn1nccn1
0.78 (≈ 3 µM)	6.25 (≈ 24 µM)	3.13 (≈ 12 µM)	0.78 (≈ 3 µM)	0.78 (≈ 3 µM)	Cc1cc(C)n(CC#CI)n1
0.78 (≈ 2.69 µM)	3.13 (≈ 10.8 µM)	3.13 (≈ 10.8 µM)	0.39 (≈ 1.34 µM)	0.39 (≈ 1.34 µM)	CC(C)Cc1nnn(CC#CI)n1
0.78 (≈ 3.35 µM)	3.13 (≈ 13.4 µM)	1.56 (≈ 6.69 µM)	0.78 (≈ 3.35 µM)	0.78 (≈ 3.35 µM)	IC#CCn1ccnn1
3.13 (≈ 10.4 µM)	25 (≈ 83 µM)	25 (≈ 83 µM)	6.25 (≈ 20.8 µM)	1.56 (≈ 5.18 µM)	CC(=O)c1c(C)cn(CC#CI)c1C
0.78 (≈ 2.83 µM)	1.56 (≈ 5.65 µM)	3.13 (≈ 11.3 µM)	0.78 (≈ 2.83 µM)	0.78 (≈ 2.83 µM)	CC(C)c1nnn(CC#CI)n1
25 (≈ 42.1 µM)	> 100	> 100	> 100	25 (≈ 42.1 µM)	COc1ccc(-c2nnn(CC(I)=C(I)I)n2)cc1
0.78 (≈ 2.35 µM)	6.25 (≈ 18.8 µM)	1.56 (≈ 4.7 µM)	0.1 (≈ 0.301 µM)	0.2 (≈ 0.602 µM)	CCCCCCCc1nnnn1CC#CI
3.13 (≈ 6.26 µM)	12.5 (≈ 25 µM)	12.5 (≈ 25 µM)	1.56 (≈ 3.12 µM)	1.56 (≈ 3.12 µM)	Cc1cncn1CC(I)=C(I)I
0.1 (≈ 0.362 µM)	0.78 (≈ 2.83 µM)	0.1 (≈ 0.362 µM)	0.78 (≈ 2.83 µM)	0.2 (≈ 0.725 µM)	O=[N+]([O-])c1ccn(CC#CI)c1
12.5 (≈ 53.9 µM)	12.5 (≈ 53.9 µM)	6.25 (≈ 26.9 µM)	6.25 (≈ 26.9 µM)	6.25 (≈ 26.9 µM)	IC#CCn1ccnc1
3.13 (≈ 8.28 µM)	3.13 (≈ 8.28 µM)	1.56 (≈ 4.13 µM)	0.1 (≈ 0.264 µM)	0.1 (≈ 0.264 µM)	FC(F)(F)c1cccc(-c2nnn(CC#CI)n2)c1
> 100	> 100	> 100	> 100	> 100	Cc1ccc(-c2nnn(CC(I)=C(I)I)n2)cc1
3.13 (≈ 11.3 µM)	6.25 (≈ 22.6 µM)	3.13 (≈ 11.3 µM)	1.56 (≈ 5.65 µM)	0.78 (≈ 2.83 µM)	CCCc1nnnn1CC#CI
0.78 (≈ 2.82 µM)	6.25 (≈ 22.6 µM)	0.1 (≈ 0.361 µM)	0.78 (≈ 2.82 µM)	0.2 (≈ 0.722 µM)	O=[N+]([O-])c1cn(CC#CI)cn1
0.2 (≈ 0.411 µM)	1.56 (≈ 3.2 µM)	6.25 (≈ 12.8 µM)	0.39 (≈ 0.801 µM)	0.78 (≈ 1.6 µM)	IC(I)=C(I)Cn1cncn1
0.39 (≈ 0.735 µM)	3.13 (≈ 5.9 µM)	6.25 (≈ 11.8 µM)	0.39 (≈ 0.735 µM)	0.78 (≈ 1.47 µM)	O=[N+]([O-])c1cn(CC(I)=C(I)I)cn1
1.56 (≈ 2.96 µM)	25 (≈ 47.4 µM)	> 25	1.56 (≈ 2.96 µM)	0.78 (≈ 1.48 µM)	IC(I)=C(I)Cn1nnnc1C1CC1
12.5 (≈ 29.7 µM)	25 (≈ 59.4 µM)	25 (≈ 59.4 µM)	6.25 (≈ 14.8 µM)	6.25 (≈ 14.8 µM)	O=[N+]([O-])c1c(Cl)cccc1-c1cn(CC#CI)cc1Cl
0.78 (≈ 2.35 µM)	12.5 (≈ 37.6 µM)	6.25 (≈ 18.8 µM)	0.1 (≈ 0.301 µM)	0.1 (≈ 0.301 µM)	CCCCCCCc1nnn(CC#CI)n1

SMILES	MIC [1] [µg/mL]	MIC [2] [µg/mL]	MIC [3] [µg/mL]	MIC [4] [µg/mL]	MIC [5] [µg/mL]
IC#CCn1cncn1	0.39 (≈ 1.67 µM)	3.13 (≈ 13.4 µM)	0.78 (≈ 3.35 µM)	0.78 (≈ 3.35 µM)	0.78 (≈ 3.35 µM)
IC#CCn1ncnn1	0.39 (≈ 1.67 µM)	1.56 (≈ 6.67 µM)	0.39 (≈ 1.67 µM)	0.78 (≈ 3.33 µM)	0.78 (≈ 3.33 µM)
